Measured values taken from US11696903B2, “Compounds and methods for scavenging dicarbonyl electrophiles” (VANDERBILT UNIVERSITY, priority 2019, dated 2023).

Assays:
[1] = test system: DNA-histone interaction (histone H4) in A549 cells; assay: Salt fractionation of A549 nuclei, histone H4 solubility; assay type: cell-based, human; details: A549, 500 μM EtSA 45 min prior to 20 μM AA
Description: FIG. 14. LG-lysyl adduct formation on histone H4 decreases DNA-histone interaction. A549 cells were stimulated and given DMSO vehicle (C lanes) or 20 μM AA for 1 h (A lanes). A subgroup of cells was treated with 500 μM EtSA 45 min prior to adding AA (E lanes). Nuclei were extracted with 0.6, 0.9, or 1.2 M NaCl buffer, and the supernatant evaluated by Western blotting for histone H4. Shown is a representative Western blot (A) as well as the pooled results of 4 experiments (B). Different exposure times may have been used for the 0.9 M and 1.2 M bands. ***, p<0.001 by one-way ANOVA followed by Tukey's multiple comparisons post-test. NS, not significant.
60-80% confluent A549 cells were stimulated and treated with AA±500 μM EtSA before scraping cells in lysis media for nuclear isolation as above. After addition of Tritox X-100 and vortexing, 1.5 mL of each sample was aliquoted into an eppendorf and centrifuged to separate nuclei. Pellets were washed with PBS and all buffer removed. Nuclear pellets were resuspended in extraction buffer containing 0.6M, 0.9M, 1.2M or 1.5M NaCl (with 10 mM Tris, pH 7.5, 3 mM MgCl2, 0.5% NP-40, and protease inhibitor cocktail) and incubated 10 min on ice. […] This was sonicated, denatured at 95° C., and analyzed by SDS-PAGE and Western blotting, using Ponceau stain to visualize proteins and confirm equal loading, and anti-H4 antibody (Abeam, Cambridge, Mass.). […]

colonic immune response = assay: Colonic immune response in AOM-DSS mice (infiltration score, gene expression, IF); assay type: in vivo, C57BL/6 mice
Excerpt: The present inventors used the tissues generated for FIG. 5 to study immune cell responses in AOM-DSS-treated mice±EtHOBA.
Using the tissues from the same mice as in FIG. 5, the present inventors analyzed the expression of key genes encoding mediators of the innate and adaptive immune response. […] Importantly, the overall pattern was that the genes encoding antitumoral effectors were expressed at a higher level in mice that were given compounds of the present invention. […] In contrast, the gene encoding the immunosuppressive myeloid mediator AR G1 was not affected by EtHOBA (FIG. 9). Using IF, we confirmed that mice treated with AOM-DSS mice that were given EtHOBA had increased CD68^+NOS2^+ (M1 macrophages) in colon tumors (FIG. 10).

[2] = EtSA in gastric tissues (LC/ESI/MS/MS); assay type: in vivo, INS-GAS mice; details: EtSA in drinking water
Description: FIGS. 16A, 16B, 16C, 16D, 16E, and 16F show INS-GAS mice (8 per group) were infected or not with H. pylori strain PMS for 8 weeks and then treated with EtSA (7.5 mg/ml) one week after infection. (A) EtSA concentration in gastric tissues; **P<0.01, ****P<0.0001 vs. mice without EtSA. (B) Frequency of diagnoses. IMC, intramucosal carcinoma; LGD, low grade dysplasia; ND, no dysplasia. (C) Quantification of extent of dysplasia and cancer as a percentage of tissue sections. (D) H&E staining of INS-GAS mouse stomach tissues, showing carcinoma in an infected mouse; scale bar, 50 μm. In B and C, *P<0.05, **P<0.01 vs. infected mice.
As discussed further in the Examples, the human gastric epithelial cell line AGS was infected with Hp PMSS1±10 mM EtSA. FVB/N insulin-gastrin (INS-GAS) mice and Mongolian gerbils were infected for 8 wk with Hp PMSS1 and 7.13, respectively; EtSA (0.75% in water) was given to animals beginning one wk post-infection. Lys-LG adducts, a marker of electrophile reactions, and EtSA were quantified by LC/EST/MS/MS. Histology was analyzed on H&E staining. DNA damage was evaluated by pH2AX staining. Hp colonization was quantified by culture. Mucosal immune responses were determined by RNA profiling and by Luminex assay. Mice were imaged using PET/CT with ^18F-FDG (inflammation marker) and ^18F—NaF (tumor marker). […]

CCc1ccc(O)c(CN)c1 [EtHOBA, 5-ethyl-2-hydroxybenzylamine]
elution of histone H4 at lower salt concentrations after AA [1]: reversed
immune cell infiltration (colonic immune response; AOM-DSS mice, EtHOBA vs untreated): more influx of immune cells
Arg1 (ARG1) expression (colonic immune response; AOM-DSS ± EtHOBA): not affected
CD68+NOS2+ (M1 macrophages) in colon tumors (colonic immune response; IF, AOM-DSS mice): increased
histology in control mice (colonic immune response; control mice given EtHOBA): no effect on histology
Il12a expression (colonic immune response; non-tumor and tumor tissue, AOM-DSS ± EtHOBA): reached statistical significance for an increase
Il17 expression (colonic immune response; non-tumor tissue, AOM-DSS ± EtHOBA): reached statistical significance for an increase
Il12b expression (colonic immune response; tumor tissue, AOM-DSS ± EtHOBA): reached statistical significance for an increase
Nos2 expression (colonic immune response; tumor tissue, AOM-DSS ± EtHOBA): reached statistical significance for an increase
Tnfa expression (colonic immune response; tumor tissue, AOM-DSS ± EtHOBA): reached statistical significance for an increase
EtSA bioavailability in the stomach [2]: bioavailable in the stomach
